Measurements published in US20260191863A1, “PYRROLOPYRIMIDINE COMPOSITIONS FOR TREATMENT OF ITK MEDIATED CONDITIONS” (ACLARIS THERAPEUTICS, INC., priority 2022, published 2026).
Where “and” joins values, the source holds several entries; their conditions need not be identical. Equal entries are not always repeated. Where two headings read alike, the source gives them in different places.

What was measured:
[1] = system: ITK (IFNγ mRNA); assay: Pre-clinical αCD3/αCD28 stimulated IFNγ mRNA; format: cell-based; settings: Homo sapiens
[2] = system: ITK & JAK (IFNγ protein); assay: Pre-clinical human whole blood αCD3 + IL-15/IFNγ (18 hr); format: cell-based
[3] = Phase 1 single ascending dose (SAD) study: pharmacokinetics, food effect, formulation bridging; format: in vivo, human; settings: for half-life / Tmax / AUC(0-inf) / Cmax / AUC(0-t) / Vd/F: both sexes, human, in vivo; for AUC(0-t): read-out: AUC0-24; for Vd/F: read-out: Vz/F
Procedure: Type of Study—This was an FIH, randomized, observer-blind, placebo-controlled study designed to evaluate the safety, tolerability, PK, and PD of Compound I in healthy subjects. The study consisted of: single ascending dose (SAD) cohorts (1-80 mg/day) plus formulation bridging and food effect (FE) cohorts.
Approximately 64 male and female subjects were enrolled into 8 planned cohorts in the SAD study. In each cohort, a total of 8 subjects were randomized to receive a single oral capsule dose of Compound I (n=6) or placebo (n=2) in the morning with approximately 240 mL of water after an overnight fast of at least 8 hours.
Cohort 4 was an FE (food effect) cohort where subjects received Compound I capsules or placebo, fasted on Day 1 and Compound I or placebo after a high-fat, high-calorie breakfast on Day 8 after a 7-day washout period.
Cohort 5 was a formulation bridging cohort where subjects will receive Compound I capsules or placebo on Day 1 and Compound I tablets or placebo on Day 8 after a 7-day washout period.
The dosage form of Compound I in Cohorts 6, 7, and 8 were capsules and the subjects will receive a single oral dose of Compound I (n=6) capsules or placebo (n=2) on Day 1 after an overnight fast of at least 8 hours.

[4] = po, 1 mg, single oral dose 1 mg, capsule, fasted
[5] = po, 3 mg, single oral dose 3 mg, capsule, fasted
[6] = po, 5 mg, single oral dose 5 mg, capsule, fasted
[7] = po, 15 mg, single oral dose 15 mg, capsule, fasted
[8] = po, 15 mg, single oral dose 15 mg, capsule, fed (high-fat, high-calorie breakfast)
[9] = po, 25 mg, single oral dose 25 mg, capsule, fasted
[10] = po, 25 mg, single oral dose 25 mg, tablet
[11] = po, 50 mg, single oral dose 50 mg, capsule, fasted

With `C=CC(=O)N1C[C@H](Nc2ncnc3[nH]cc([C@H]4CC4(F)F)c23)CC[C@@H]1C` [Compound I, 1-((2S,5R)-5-((5-((R)-2,2-difluorocyclopropyl)-7H-pyrrolo[2,3-d]pyrimidin-4-yl)amino)-2-methylpiperidin-1-yl)prop-2-en-1-one] the EC50 [1] was 17.3 ± 3 nM, the “Potency relative to Ritlecitinib, αCD3 + IL-15/IFNγ (18 hr)” value [2] was “(3.3 fold*)” and the IC50 ([2]; Homo sapiens) was 0.0036 µg/mL and 10.1 nM. The EC50 ([2]; Homo sapiens, 18 h, read-out: Human Whole Blood EC50, αCD3 + IL-15/IFNγ (18 hr)) was 10 nM, the EC50 ([2]; Homo sapiens, read-out: Pre-clinical EC50) was 10.2 ± 4.1 nM and the EC50 ([2]; human whole blood dual stimulation, read-out: Human Compound I Cp to reach HWB dual stim EC50 (in vitro report)) was no less than 4.19 ng/mL. For the same compound, the “Difference in PK parameters between capsule and tablet formulation” value ([3]; 25 mg single dose) was “No significant difference”, the “Plasma concentration dose dependence” value ([3]; SAD) was “increased in a dose-dependent manner” and the “Time to peak plasma concentration after dosing” value ([3]; SAD) was no more than 2 h. For the same compound, the “Exposure dose proportionality (Cmax and AUC)” value ([3]; SAD, 1-80 mg single dose) was “dose-proportional”, the half-life ([3]; oral, SAD, 1-80 mg single dose, read-out: Half-life (range across doses)) was 1.5 to 2.5 h and the Tmax ([3]; oral, SAD, 1-80 mg single dose, read-out: Tmax (range across doses)) was 0.7 to 1.2 h. For the same compound, the AUC(0-inf) [3, 4] was 5.95 ng·h/mL, the Cmax [3, 4] was 2.71 ng/mL and the AUC(0-t) [3, 4] was 5.95 ng·h/mL. For the same compound, the half-life ([3]; po, 1 mg, single oral dose 1 mg, capsule, fasted, read-out: T1/2 (converted)) was 1.51 h, the Tmax ([3]; po, 1 mg, single oral dose 1 mg, capsule, fasted, read-out: Tmax) was 0.674 h and the Vd/F [3, 4] was 384 L. For the same compound, the AUC(0-inf) [3, 5] was 15.8 ng·h/mL, the Cmax [3, 5] was 5.9 ng/mL and the AUC(0-t) [3, 5] was 15.4 ng·h/mL. It also gave a half-life ([3]; po, 3 mg, single oral dose 3 mg, capsule, fasted, read-out: T1/2 (converted)) of 1.53 h, a Tmax ([3]; po, 3 mg, single oral dose 3 mg, capsule, fasted, read-out: Tmax) of 0.757 h and a Vd/F [3, 5] of 419 L. For the same compound, the AUC(0-inf) [3, 6] was 33.5 ng·h/mL, the Cmax [3, 6] was 11.9 ng/mL and the AUC(0-t) [3, 6] was 33.1 ng·h/mL. For the same compound, the half-life ([3]; po, 5 mg, single oral dose 5 mg, capsule, fasted, read-out: T1/2 (converted)) was 1.53 h, the Tmax ([3]; po, 5 mg, single oral dose 5 mg, capsule, fasted, read-out: Tmax) was 1.07 h and the Vd/F [3, 6] was 331 L. The AUC(0-inf) [3, 7] was 96.7 ng·h/mL, the Cmax [3, 7] was 31.5 ng/mL and the AUC(0-t) [3, 7] was 95.7 ng·h/mL. The half-life ([3]; po, 15 mg, single oral dose 15 mg, capsule, fasted, read-out: T1/2 (converted)) was 1.61 h, the Tmax ([3]; po, 15 mg, single oral dose 15 mg, capsule, fasted, read-out: Tmax) was 1 h and the Vd/F [3, 7] was 360 L. For the same compound, the AUC(0-inf) [3, 8] was 93.9 ng·h/mL, the Cmax [3, 8] was 17.6 ng/mL and the AUC(0-t) [3, 8] was 105 ng·h/mL. For the same compound, the half-life ([3]; po, 15 mg, single oral dose 15 mg, capsule, fed (high-fat, high-calorie breakfast), read-out: T1/2 (converted)) was 1.73 h, the Tmax ([3]; po, 15 mg, single oral dose 15 mg, capsule, fed (high-fat, high-calorie breakfast), read-out: Tmax) was 5 h and the Vd/F [3, 8] was 399 L. The AUC(0-inf) [3, 9] was 154 ng·h/mL, the Cmax [3, 9] was 47 ng/mL and the AUC(0-t) [3, 9] was 153 ng·h/mL. The half-life ([3]; po, 25 mg, single oral dose 25 mg, capsule, fasted, read-out: T1/2 (converted)) was 1.57 h, the Tmax ([3]; po, 25 mg, single oral dose 25 mg, capsule, fasted, read-out: Tmax) was 1.35 h and the Vd/F [3, 9] was 366 L. It also gave an AUC(0-inf) [3, 10] of 199 ng·h/mL, a Cmax [3, 10] of 63.6 ng/mL and an AUC(0-t) [3, 10] of 197 ng·h/mL. It also gave a half-life ([3]; po, 25 mg, single oral dose 25 mg, tablet, read-out: T1/2 (converted)) of 1.75 h, a Tmax ([3]; po, 25 mg, single oral dose 25 mg, tablet, read-out: Tmax) of 1.07 h and a Vd/F [3, 10] of 317 L. It also gave an AUC(0-inf) [3, 11] of 428 ng·h/mL and a Cmax [3, 11] of 143 ng/mL.
